Data reported in patent publication US11781160B2, “Methods for the production of methacrylates” (priority 2018, dated 2023).

Assays:
[1] = tested on: E. coli MG1655 soxR(R20H); test: Growth in MSX medium with 20% (v/v) BMA, single mutant; assay type: cell-based, Escherichia coli; settings: 20% (v/v) BMA added immediately after inoculation
[2] = tested on: gene transcription in strain 5; test: Transcriptome analysis with added BMA, strain 5
Protocol: (§1) Transcriptome analysis was carried out to characterize transcriptional activity in mutant microorganisms using standard methods.
(§2) Sample Preparation • 1) Streak strains onto fresh MSX agar (15 g/L) plates directly from the cryostocks and incubate overnight at 37° C. • 2) Isolate single colonies and inoculate pre-cultures in MSX, using 50 ml shake flasks. Incubate overnight at 37° C. and 250 rpm. • 3) Inoculate cultures in MSX to an initial OD600 of 0.05, using 250 mL pyrex shake flasks with 24/29 neck join. Incubate at 37° C. and 250 rpm. Do 4 biological replicates (3 replicates for sequencing plus one backup)—4 flasks per strain. • 4) Seal shake flasks with sterile Suba seals. To monitor OD, take samples using a sterile syringe and needle after first swabbing the Suba seals with 70% ethanol. Monitor OD. • 5) When OD reaches 0.3, collect first sample for RNA extraction (“before” sample) into a pre-chilled falcon. Keep samples on ice. • 6) Immediately after, add 20% (v/v) BMA. Re-incubate cultures. • 7) Quickly process the samples according to the RNeasy kit protocol, until step 6 of protocol 1. Always keep samples on ice and store it at −80° C. until further use, if possible, flash freeze in liquid nitrogen it before storing. • 8) One hour after the first sample collection/BMA addition, collect the second sample for RNA extraction (“after” sample). Proceed as explained before. • 9) Continue to monitor the OD until the cultures reach 24 h. • To summarise, each strain tested will have 6 samples to send for sequencing, 3 collected right before the addition and 3 collected one hour after, plus 1 “back-up” for before and after, in case something goes wrong during extraction (8 samples total). Besides the WT strain with the addition of BMA, samples were also collected from a WT culture with no BMA, one hour after reaching OD of 0.3, as a control.
(§3) Transcription was compared for a double mutant and the wild-type in the presence and absence of BMA relative to the level in the wild type in the absence of BMA. For the avoidance of doubt the level in the table is the ratio of the level in the strain under the BMA exposure relative to the level in the wild type in the absence of added BMA.

[3] = tested on: gene transcription in strain 18; test: Transcriptome analysis with added BMA, strain 18
Protocol: as §1, §2, §3

[4] = tested on: gene transcription in strain 23; test: Transcriptome analysis with added BMA, strain 23
Protocol: as §1, §2, §3

[5] = tested on: E. coli BW25113 isolate 2-rob(R156H) rpoC(L361R) ilvN(C41Y) ygbK(A294E) IpxM(168_185del); test: Growth kinetics of isolated strain 2 with 20% v/v BMA
[6] = tested on: E. coli BW25113 isolate 3-rob(R156H) ilvN(C41Y) phoP(L11F) acrB(V448L) acrR(indels); test: Growth kinetics of isolated strain 3 with 20% v/v BMA
[7] = tested on: E. coli BW25113 isolate 21-marR(V84G) rpoC(R1075C) rpoC(A787V) ompR(R15S) acrB(V901l) acrR(indels); test: Growth kinetics of isolated strain 21 with 20% v/v BMA
E. coli BW 25113 = test: Growth of E. coli BW25113 (wild type) with BMA in M9 minimal medium
[8] = BMA concentration increased further to 20% v/v
[9] = Wild Type, 0.05% BMA (v/v), Table 2.2
[10] = Wild Type, 0.1% BMA (v/v), Table 2.2

Compound: C=C(C)C(=O)OCCCC [BMA, butyl 2-methylprop-2-enoate]
- Growth in the presence of BMA [1]: able to grow
- IdhA transcription level relative to wild type without BMA [2]: 18.24
- acrA transcription level relative to wild type without BMA [2]: 6.28
- acrB transcription level relative to wild type without BMA [2]: 7.49
- adiY transcription level relative to wild type without BMA [2]: 24.79
- ariR transcription level relative to wild type without BMA [2]: 21.79
- asr transcription level relative to wild type without BMA [2]: 160.42
- bssR transcription level relative to wild type without BMA [2]: 20.35
- ibpA transcription level relative to wild type without BMA [2]: 43.39
- ibpB transcription level relative to wild type without BMA [2]: 174.50
- narG transcription level relative to wild type without BMA [2]: 47.85
- nirB transcription level relative to wild type without BMA [2]: 34.19
- nirD transcription level relative to wild type without BMA [2]: 16.69
- pspA transcription level relative to wild type without BMA [2]: 23.32
- pspB transcription level relative to wild type without BMA [2]: 16.87
- pspD transcription level relative to wild type without BMA [2]: 14.10
- pspc transcription level relative to wild type without BMA [2]: 16.55
- raiA transcription level relative to wild type without BMA [2]: 20.11
- rmf transcription level relative to wild type without BMA [2]: 15.45
- soxS transcription level relative to wild type without BMA [2]: 41.81
- spy transcription level relative to wild type without BMA [2]: 20.88
- ybfA transcription level relative to wild type without BMA [2]: 20.19
- ybhG transcription level relative to wild type without BMA [2]: 18.33
- ybiH transcription level relative to wild type without BMA [2]: 15.30
- ydgU transcription level relative to wild type without BMA [2]: 48.46
- yhjx transcription level relative to wild type without BMA [2]: 105.59
- yibT transcription level relative to wild type without BMA [2]: 29.57
- ymgA transcription level relative to wild type without BMA [2]: 16.41
- ymgC transcription level relative to wild type without BMA [2]: 17.15
- ynfM transcription level relative to wild type without BMA [2]: 40.65
- yohk transcription level relative to wild type without BMA [2]: 16.04
- IdhA transcription level relative to wild type without BMA [3]: 56.74
- acrA transcription level relative to wild type without BMA [3]: 6.47
- acrB transcription level relative to wild type without BMA [3]: 10.12
- adiY transcription level relative to wild type without BMA [3]: 21.13
- ariR transcription level relative to wild type without BMA [3]: 25.19
- asr transcription level relative to wild type without BMA [3]: 74.22
- bssR transcription level relative to wild type without BMA [3]: 134.14
- ibpA transcription level relative to wild type without BMA [3]: 74.55
- ibpB transcription level relative to wild type without BMA [3]: 158.35
- narG transcription level relative to wild type without BMA [3]: 25.46
- nirB transcription level relative to wild type without BMA [3]: 23.98
- nirD transcription level relative to wild type without BMA [3]: 34.98
- pspA transcription level relative to wild type without BMA [3]: 20.71
- pspB transcription level relative to wild type without BMA [3]: 20.94
- pspD transcription level relative to wild type without BMA [3]: 18.60
- pspc transcription level relative to wild type without BMA [3]: 21.37
- raiA transcription level relative to wild type without BMA [3]: 44.16
- rmf transcription level relative to wild type without BMA [3]: 20.96
- soxS transcription level relative to wild type without BMA [3]: 1.17
- spy transcription level relative to wild type without BMA [3]: 4.36
- ybfA transcription level relative to wild type without BMA [3]: 24.95
- ybhG transcription level relative to wild type without BMA [3]: 18.85
- ybiH transcription level relative to wild type without BMA [3]: 12.75
- ydgU transcription level relative to wild type without BMA [3]: 28.47
- yhjx transcription level relative to wild type without BMA [3]: 251.44
- yibT transcription level relative to wild type without BMA [3]: 83.81
- ymgA transcription level relative to wild type without BMA [3]: 11.97
- ymgC transcription level relative to wild type without BMA [3]: 12.62
- ynfM transcription level relative to wild type without BMA [3]: 55.40
- yohk transcription level relative to wild type without BMA [3]: 14.54
- IdhA transcription level relative to wild type without BMA [4]: 28.20
- acrA transcription level relative to wild type without BMA [4]: 6.50
- acrB transcription level relative to wild type without BMA [4]: 7.66
- adiY transcription level relative to wild type without BMA [4]: 6.73
- ariR transcription level relative to wild type without BMA [4]: 14.82
- asr transcription level relative to wild type without BMA [4]: 123.20
- bssR transcription level relative to wild type without BMA [4]: 71.61
- ibpA transcription level relative to wild type without BMA [4]: 31.35
- ibpB transcription level relative to wild type without BMA [4]: 41.67
- narG transcription level relative to wild type without BMA [4]: 42.52
- nirB transcription level relative to wild type without BMA [4]: 25.46
- nirD transcription level relative to wild type without BMA [4]: 25.17
- pspA transcription level relative to wild type without BMA [4]: 32.81
- pspB transcription level relative to wild type without BMA [4]: 27.16
- pspD transcription level relative to wild type without BMA [4]: 28.18
- pspc transcription level relative to wild type without BMA [4]: 28.45
- raiA transcription level relative to wild type without BMA [4]: 31.13
- rmf transcription level relative to wild type without BMA [4]: 8.80
- soxS transcription level relative to wild type without BMA [4]: 30.40
- spy transcription level relative to wild type without BMA [4]: 4.79
- ybfA transcription level relative to wild type without BMA [4]: 29.99
- ybhG transcription level relative to wild type without BMA [4]: 20.82
- ybiH transcription level relative to wild type without BMA [4]: 16.75
- ydgU transcription level relative to wild type without BMA [4]: 50.45
- yhjx transcription level relative to wild type without BMA [4]: 596.44
- yibT transcription level relative to wild type without BMA [4]: 42.63
- ymgA transcription level relative to wild type without BMA [4]: 8.84
- ymgC transcription level relative to wild type without BMA [4]: 7.42
- ynfM transcription level relative to wild type without BMA [4]: 41.92
- yohk transcription level relative to wild type without BMA [4]: 10.04
- Growth rate [5]: 0.532 ± 0.028 h⁻¹
- Lag time [5]: 6 h
- Max cell concentration [5]: 0.651 ± 0.052 g/L
- Growth rate [6]: 0.566 ± 0.010 h⁻¹
- Lag time [6]: 4 h
- Max cell concentration [6]: 0.790 ± 0.076 g/L
- Growth rate [7]: 0.703 ± 0.030 h⁻¹
- Lag time [7]: 5 h
- Max cell concentration [7]: 0.438 ± 0.022 g/L
- Growth rate (E. coli BW 25113; 0.01% v/v BMA): 0.617 ± 0.009 h⁻¹
- Lag phase (E. coli BW 25113; 0.01% v/v BMA): 2 h
- Max cell concentration (E. coli BW 25113; 0.01% v/v BMA): 1.365 ± 0.120 g/L
- Growth rate (E. coli BW 25113; 0.05% v/v BMA): 0.517 ± 0.014 h⁻¹
- Lag phase (E. coli BW 25113; 0.05% v/v BMA): 4 h
- Max cell concentration (E. coli BW 25113; 0.05% v/v BMA): 1.269 ± 0.074 g/L
- Growth rate (E. coli BW 25113; 0.1% v/v BMA): 0.519 ± 0.010 h⁻¹
- Lag phase (E. coli BW 25113; 0.1% v/v BMA): 12 h
- Max cell concentration (E. coli BW 25113; 0.1% v/v BMA): 1.335 ± 0.074 g/L
- Consistency of growth (E. coli BW 25113; [8]): growth was inconsistent
- Incubation time after which cell growth was observed (E. coli BW 25113; [8]): 24 to 36 h
- BMA concentration that inhibits the growth of E. coli (E. coli BW 25113; M9 minimal medium, 37° C.): above 0.05 % v/v
- Growth rate (E. coli BW 25113; [9]): 0.517 ± 0.014 h⁻¹
- Lag time (E. coli BW 25113; [9]): 4 h
- Max cell concentration (E. coli BW 25113; [9]): 1.269 ± 0.074 g/L
- Growth rate (E. coli BW 25113; [10]): 0.519 ± 0.010 h⁻¹
- Lag time (E. coli BW 25113; [10]): 12 h
- Max cell concentration (E. coli BW 25113; [10]): 1.335 ± 0.074 g/L
- Time after inoculation at which significant growth was exhibited (E. coli BW 25113; […], same conditions): 12 h
